Reference: patent publication US6908913B2, “Carbapenem derivatives” (Meiji Seiki Kaisha, Ltd., priority 2000, dated 2005)
Converted amounts (≈) assume the structure as drawn.

Assays:
B. catarrhalis W-0500 = experiment: Antibiotic activities (MIC), agar dilution; assay type: cell-based; settings: Moraxella catarrhalis, W0500, Sensitivity Disk agar-N+5% Horse blood, inoculant 10^6 CFU/ml, read-out: minimum inhibiting concentration (MIC)
Procedure: (§1) The minimum inhibiting concentrations (MIC, μg/ml) of representative compounds among the novel carbapenem derivatives according to the present invention to various pathogenic bacteria were measured in accordance with the method described in CHEMOTHERAPY, vol. 16, No. 1, 99, 1968. The culture medium for measurement was Sensitivity Disk agar-N+5% Horse blood, and the amount of inoculants was 10^6 CFU/ml.

[1] = test system: S. pneumoniae PRC9 (penicillin-hyperresistant strain); experiment: Antibiotic activities (MIC), agar dilution; assay type: cell-based; settings: Streptococcus pneumoniae, Sensitivity Disk agar-N+5% Horse blood, inoculant 10^6 CFU/ml, read-out: minimum inhibiting concentration (MIC)
Procedure: as §1

H. influenzae PRC44 = experiment: Antibiotic activities (MIC), agar dilution; assay type: cell-based; settings: Haemophilus influenzae, Sensitivity Disk agar-N+5% Horse blood, inoculant 10^6 CFU/ml, read-out: minimum inhibiting concentration (MIC)
Procedure: as §1

E. coli NIHJ JC-2 = experiment: Antibiotic activities (MIC), agar dilution; assay type: cell-based; settings: Escherichia coli, NIHJJC2, Sensitivity Disk agar-N+5% Horse blood, inoculant 10^6 CFU/ml, read-out: minimum inhibiting concentration (MIC)
Procedure: as §1

[2] = test system: S. aureus M126 HR (methicillin-hyperresistant strain); experiment: Antibiotic activities (MIC), agar dilution; assay type: cell-based; settings: Staphylococcus aureus, Sensitivity Disk agar-N+5% Horse blood, inoculant 10^6 CFU/ml, read-out: minimum inhibiting concentration (MIC)
Procedure: as §1

K. pneumoniae PCI602 = experiment: Antibiotic activities (MIC), agar dilution; assay type: cell-based; settings: Klebsiella pneumoniae, Sensitivity Disk agar-N+5% Horse blood, inoculant 10^6 CFU/ml, read-out: minimum inhibiting concentration (MIC)
Procedure: as §1

S. aureus 209P JC-1 = experiment: Antibiotic activities (MIC), agar dilution; assay type: cell-based; settings: Staphylococcus aureus, Sensitivity Disk agar-N+5% Horse blood, inoculant 10^6 CFU/ml, read-out: minimum inhibiting concentration (MIC)
Procedure: as §1

[3] = test system: S. aureus M126 (methicillin-hyperresistant strain); experiment: Antibiotic activities (MIC), agar dilution; assay type: cell-based; settings: Staphylococcus aureus, Sensitivity Disk agar-N+5% Horse blood, inoculant 10^6 CFU/ml, read-out: minimum inhibiting concentration (MIC)
Procedure: as §1

[4] = test system: Staphylococcus aureus MF126 (MRSA); experiment: Therapeutic effect on mice subjected to general infection with MRSA; assay type: in vivo; settings: cyclophosphamide-treated mice, subcutaneous with cilastatin 2 and 4 hours after infection, survival rate on seventh day
Procedure: The therapeutic effect of representative compounds among the novel carbapenem derivatives according to the present invention on mice subjected to general infection with MRSA were assayed by the following method, and the results are shown in Table 2. Specifically, cyclophosphamide (200 mg/kg) was administered intraperitoneally to mice (n=8), and, four days after the administration of cyclophosphamide, Staphylococcus aureus MF126 (MRSA) was inoculated intraperitoneally to infect the mice with MRSA. Cilastatin (1 mg/mouse) and the carbapenem compound in an indicated amount were subcutaneously administered two hours and four hours after the infection. ED50 was calculated based on the survival rate on the seventh day after the infection.

[5] = assay type: in vivo; settings: intravenously, 1,000 mg/kg, ICR male mice, three mice per group
Procedure: The compound of Example 1 was administered intravenously to mice (ICR, male, each group consisting of three mice) in an amount of 2,000 mg/kg.
The compound of Example 2 was administered intravenously to mice (ICR, male, each group consisting of three mice) in an amount of 1,000 mg/kg.

[6] = Amount of inoculant: 2.8 × 10^6 CFU/mouse
[7] = Amount of inoculant: 5.9 × 10^6 CFU/mouse

SMILES	MIC (B. catarrhalis W-0500)	MIC [1]	MIC (H. influenzae PRC44)	MIC (E. coli NIHJ JC-2)	MIC [2]	MIC (K. pneumoniae PCI602)	MIC (S. aureus 209P JC-1)	MIC [3]	ED50 [4, 6]	survival in acute toxicity test [5]	ED50 ([4]; Amount of inoculant: 2.5 × 10^6 CFU/mouse)	ED50 ([4]; Amount of inoculant: 2.9 × 10^6 CFU/mouse)	ED50 [4, 7]
C[C@@H](O)[C@H]1C(=O)N2C(C(=O)O)=C(c3cn4cnc(C(=O)c5cccnc5)c4s3)[C@H](C)[C@H]12 [Example 1, Sodium (1S,5R,6S)-6-((1R)-1-hydroxyethyl)-1-methyl-2-[7-(pyridin-3-yl)carbonylimidazo[5,1-b]thiazol 2-yl]-1-carbapen-2-em-3-carboxylate]	0.016 µg/mL	0.031 µg/mL	0.031 µg/mL	1 µg/mL	4 µg/mL	1 µg/mL	< 0.008 µg/mL	1 µg/mL					
C[C@@H](O)[C@H]1C(=O)N2C(C(=O)[O-])=C(c3cn4cnc(C(=O)c5ccc[n+](CC(N)=O)c5)c4s3)[C@H](C)[C@H]12 [Example 2, (1S,5R,6S)-2-[7-(1-Carbamoylmethylpyridinium-3-yl)carbonylimidazo[5,1-b]thiazol-2-yl]-6-((1R)-1-hydroxyethyl)-1-methyl-1-carbapen-2-em-3-carboxylate]	0.016 µg/mL (≈ 0.0323 µM)	0.031 µg/mL (≈ 0.0626 µM)	0.031 µg/mL (≈ 0.0626 µM)	0.031 µg/mL (≈ 0.0626 µM)	2 µg/mL (≈ 4.04 µM)	0.063 µg/mL (≈ 0.127 µM)	< 0.008 µg/mL	0.5 µg/mL (≈ 1.01 µM)	0.07 mg/mouse	all of the mice survived			
C[C@@H](O)[C@H]1C(=O)N2C(C(=O)O)=C(c3cn4cnc(C(=O)[C@@H]5CCCN5)c4s3)[C@H](C)[C@H]12 [Example 11, Sodium (1S,5R,6S)-6-((1R)-1-hydroxyethyl)-1-methyl-2-[7-((2S)-pyrrolidin-2-yl)carbonylimidazo[5,1-b]thiazol-2-yl]-1-carbapen-2-em-3-carboxylate]									0.25 mg/mouse				
C[C@@H](O)[C@H]1C(=O)N2C(C(=O)[O-])=C(c3cn4cnc(C(=O)c5cc(SCCN)c[n+](CC(=O)O)c5)c4s3)[C@H](C)[C@H]12 [Example 37, (1S,5R,6S)-2-[7-[5-(2-Aminoethyl)thio-1-carboxylmethylpyridinium-3-yl]carbonylimidazo[5,1-b]-thiazol-2-yl]-6-((1R)-1-hydroxyethyl)-1-methyl-1-carbapen-2-em-3-carboxylate]											0.139 mg/mouse		
C[C@@H](O)[C@H]1C(=O)N2C(C(=O)[O-])=C(c3cn4cnc(C(=O)c5ccc[n+](CC(N)=O)c5)c4s3)C[C@H]12 [Example 39, (5R,6S)-2-[7-(1-Carbamoylmethylpyridinium-3-yl)carbonylimidazo[5,1-b]thiazol-2-yl]-6-((1R)-1-hydroxyethyl)-1-carbapen-2-em-3-carboxylate]	0.031 µg/mL (≈ 0.0644 µM)	0.031 µg/mL (≈ 0.0644 µM)	0.063 µg/mL (≈ 0.131 µM)	0.031 µg/mL (≈ 0.0644 µM)	1 µg/mL (≈ 2.08 µM)	0.031 µg/mL (≈ 0.0644 µM)	0.008 µg/mL (≈ 0.0166 µM)	0.25 µg/mL (≈ 0.519 µM)				0.02 mg/mouse	
C[C@@H](O)[C@H]1C(=O)N2C(C(=O)[O-])=C(c3cn4cnc(C(=O)c5ccc[n+](CCNS(N)(=O)=O)c5)c4s3)[C@H](C)[C@H]12 [Example 65, (1S,5R,6S)-6-((1R)-1-Hydroxyethyl)-1-methyl-2-[7-[1-(2-sulfamoylaminoethyl)pyridinium-3-yl]carbonylimidazo[5,1-b]thiazol-2-yl]-1-carbapen-2-em-3-carboxylate]													0.32 mg/mouse
CN[C@H](CC(C)C)C(=O)N[C@H]1C(=O)N[C@@H](CC(N)=O)C(=O)N[C@H]2C(=O)N[C@H]3C(=O)N[C@H](C(=O)N[C@H](C(=O)O)c4cc(O)cc(O)c4-c4cc3ccc4O)[C@H](O)c3ccc(c(Cl)c3)Oc3cc2cc(c3O[C@@H]2O[C@H](CO)[C@@H](O)[C@H](O)[C@H]2O[C@H]2C[C@](C)(N)[C@H](O)[C@H](C)O2)Oc2ccc(cc2Cl)[C@H]1O [Vancomycin, reference compound]									0.50 mg/mouse				0.71 mg/mouse

Further lines, with some results ahead:

MIC (B. catarrhalis W-0500)	MIC [1]	MIC (H. influenzae PRC44)	MIC (E. coli NIHJ JC-2)	MIC [2]	MIC (K. pneumoniae PCI602)	MIC (S. aureus 209P JC-1)	MIC [3]	SMILES	ED50 [4, 6]	survival in acute toxicity test [5]	ED50 ([4]; Amount of inoculant: 2.5 × 10^6 CFU/mouse)	ED50 ([4]; Amount of inoculant: 2.9 × 10^6 CFU/mouse)	ED50 [4, 7]
0.031 µg/mL	0.063 µg/mL	0.031 µg/mL	0.125 µg/mL	8 µg/mL	0.25 µg/mL	0.016 µg/mL	1 µg/mL	CC(=O)c1ncn2cc(C3=C(C(=O)[O-])N4C(=O)[C@H]([C@@H](C)O)[C@H]4[C@H]3C)sc12.[Na+] [Compound A, Sodium (1S,5R,6S)-2-(7-acetylimidazo[5,1-b]thiazol-2-yl)-6-((1R)-1-hydroxyethyl)-1-methyl-1-carbapen-2-em-3-carboxylate, reference compound]					
< 0.025 µg/mL	0.1 µg/mL	0.1 µg/mL	3.13 µg/mL	6.25 µg/mL	3.13 µg/mL	< 0.006 µg/mL	1.56 µg/mL	C[C@@H](O)[C@H]1C(=O)N2C(C(=O)[O-])=C(c3cn4cnc(C(=O)c5ccccc5)c4s3)[C@H](C)[C@H]12.[Na+] [Compound B, Sodium (1S,5R,6S)-2-(7-benzoylimidazo[5,1-b]thiazol-2-yl)-6-((1R)-1-hydroxyethyl)-1-methyl-1-carbapen-2-em-3-carboxylate, reference compound]					
0.063 µg/mL (≈ 0.21 µM)	0.25 µg/mL (≈ 0.835 µM)	8 µg/mL (≈ 26.7 µM)	0.125 µg/mL (≈ 0.418 µM)	64 µg/mL (≈ 214 µM)	0.25 µg/mL (≈ 0.835 µM)	0.008 µg/mL (≈ 0.0267 µM)	4 µg/mL (≈ 13.4 µM)	C[C@@H](O)[C@H]1C(=O)N2C(C(=O)O)=C(SCCN=CN)C[C@H]12 [Compound C, Imipenem, reference compound]					
